Patent publication US20220259265A1, “Inhibitors and Use Thereof in Cancer Treatment” (The University of Sydney, priority 2019, published 2022)
Blank lines part the entries; values can stand above or below the compound they belong to. Ends that are not written are not given here. Peptide text beside a SMILES is read from it. * marks the point of attachment. 5TAMRA = CN(C)c1ccc2c(c1)Oc1cc(N(C)C)ccc1C21OC(=O)c2cc(C(=O)*)ccc21

Assays:
[1] = system: IGFBP-3-NONO complexes in MDA-MB-468 cells; assay: Proximity ligation assay (PLA), MDA-MB-468 cells; format: cell-based, human
Procedure: (§1) PLA was performed using the Duolink Detection Kit (Olink Bioscience Uppsala, Sweden) as previously described (Lin M Z et al., Oncogene, 2014, 33, 85-96). Briefly, cells were grown on 8-mm glass coverslips to 50% confluency, treated, and prepared for microscopy by fixing, permeabilizing and blocking. Coverslips were incubated with primary antibody pairs (raised in different species) targeting the proteins under investigation overnight at 4° C. […]; NONO (as above) and […]; IGFBP-3 (as above), 1:100. This was followed by incubation with PLA probes MINUS and PLUS for 1 h at 37° C., probe ligation for 30 min at 37° C. and amplification over 100 min at 37° C. Interactions were detected as amplified far-red signals using a Leica TCS SP5 confocal microscope (Leica Microsystems, Wetzlar, Germany) and quantitated using Image J software.

[2] = system: IGFBP-3-NONO complexes in HCC1806 cells; assay: Proximity ligation assay (PLA), HCC1806 cells; format: cell-based, human
Procedure: as §1

[3] = system: DNA end-joining activity in MDA-MB-468 cells; assay: DNA end-joining assay, nuclear extracts of treated MDA-MB-468 cells; format: cell-based, human
Procedure: (§2) Nuclear extraction and end-joining assay was performed as previously described (Andrin C et al., J Blot Chem., 2004, 279, 25017-25023; Andrin C et al., Nucleus., 2012, 3, 384-395) with slight modifications. […] After isolation of nuclei by centrifugation through a buffer containing 300 mM sucrose, the washed nuclear pellet was extracted into high-salt buffer (20 mM Hepes, pH 7.5, 25% glycerol, 420 mM NaCl, 0.2 mM EDTA, 1.5 mM MgCl2) for 30 min on ice, and insoluble material was removed by centrifugation. The soluble nuclear extract was used in the end-joining assay. Restriction enzymes NheI and EcoRI (New England Biolabs, Ipswich, Mass., USA) were used to digest a EGFP-C1 plasmid (Clontech, Mountain View, Calif., USA) to generate a DNA fragment of 4 kb with non-homologous ends. The linearized plasmid was separated by 0.8% agarose gel electrophoresis, purified using a DNA gel extraction kit (Qiagen), and used as the substrate for end-joining assays. Nuclear extract (2 μg) was mixed with end-joining assay buffer (7.5 mM Tris pH 8.0, 0.2 mM CaCl2, 10 mM MgCl2, 50 mM KCl, 1.2 mM ATP and 0.5 mM DTT) and allowed to stand for 30 min at 22° C. Repair was initiated by adding 100 ng of prepared linearized DNA and incubated at 25° C. for 30 min, stopped by the addition of 0.5 M EDTA, 0.5% SDS and 10 mg/mL Proteinase K. DNA bands were separated on a 0.7% agarose gel, stained with SYBR Gold (Life Technologies), and visualized on a BioRad ChemiDoc imaging system.

[4] = system: γH2AX (DNA double-strand breaks) in MDA-MB-468 cells; assay: γH2AX immunofluorescence, MDA-MB-468 cells; format: cell-based, human; details: olaparib 10 μM or veliparib 20 μM pre-treatment, etoposide 1 h (T0), 4 h recovery (T4)
Procedure: (§3) The human basal-like triple negative breast cancer (TNBC) cell lines MDA-MB-468 and HCC1806 were obtained from ATCC, Manassas, Va. and maintained in RPMI 1640 medium containing 5% FBS and 10 μg/mL bovine insulin under standard conditions. Cryopreserved stocks were established within 1 month of receipt, and fresh cultures for use in experiments were established from these stocks every 2 to 3 months.
(§4) Cells grown on 8-mm glass coverslips were washed three times with PBS, fixed with 4% paraformaldehyde for 15 min, permeabilized with 0.2% Triton X-100 for 5 min and blocked with 2% BSA for 1 h. Cells were then incubated with rabbit anti-phospho-histone γH2A.X (Ser139) (1:200; Cell Signaling Technology, #9718) overnight at 4° C., washed, and further incubated with anti-rabbit secondary antibody, tagged with Alexa Fluor 594 (Life Technologies, Carlsbad, Calif., USA). For controls, cells were treated with isotype-matched IgG from the same species. Slides were mounted using ProLong Gold Antifade Reagent (Life Technologies). […] Data were calculated from three replicate experiments.

[5] = system: γH2AX (DNA double-strand breaks) in HCC1806 cells; assay: γH2AX immunofluorescence, HCC1806 cells; format: cell-based, human; details: olaparib 10 μM or veliparib 20 μM pre-treatment, etoposide 1 h (T0), 4 h recovery (T4)
Procedure: as §3, §4

[6] = system: DNA end-joining activity in HCC1806 cells; assay: DNA end-joining assay, nuclear extracts of treated HCC1806 cells; format: cell-based, human
Procedure: as §2, with “Repair was initiated by adding 100 ng of prepared linearized DNA and incubated at 25° C. for 30 min, stopped by the addition of 0.5 M EDTA, 0.5% SDS and 10 mg/mL Proteinase K. DNA bands were separated on a 0.7% agarose gel, stained with SYBR Gold (Life Technologies), and visualized on a BioRad ChemiDoc imaging system.” left out

[7] = system: HCC1806 breast cancer cells; assay: Nuclear uptake of 5-TAMRA-labelled peptide, confocal microscopy (fixed and live cell imaging); format: cell-based, human
Procedure: The peptide was synthesised with the fluorescent dye 5-TAMRA (5-carboxytetramethyl-rhodamine) covalently bound at its amino-terminus. Since under some circumstances the fixation of cells prior to imaging may introduce artefacts, experiments were performed to detect the localisation of the peptide both with and without fixation of the cells. […] At the indicated time points, cells were washed three times with PBS, fixed with 4% paraformaldehyde for 15 min, washed three times and mounted on slides using ProLong Gold Antifade Reagent containing the nuclear stain DAPI (Life Technologies). Confocal fluorescence images were captured with a Leica TCS SP5 confocal laser scanning microscope (Leica Microsystems, Wetzlar, Germany). Live cell imaging (FIG. 8b): HCC1806 cells were plated in an 8-well chamber slide (Nunc Lab-Tek, Sigma Aldrich); 0.1 mg/mL Hoechst nuclear stain (Life Technologies) was added to the cells for 15 mins and imaged (0 min time point) using Leica TCS SP5 confocal microscope. […] Images were taken at the times indicated.

[8] = target: T1, IGFBP-3 complexes with NONO (NONO/SFPQ) in MDA-MB-468 cells (Homo sapiens, UniProt Q15233); assay: Co-immunoprecipitation with IGFBP-3-Fab beads and western blotting, MDA-MB-468 cells; format: cell-based; details: 24 h preincubation with veliparib 20 μM or olaparib 10 μM prior to 20 μM etoposide
T1 construct: endogenous in cells; host or cells: MDA-MB-468; HCC1806
T1 sequence (Q15233 1-471): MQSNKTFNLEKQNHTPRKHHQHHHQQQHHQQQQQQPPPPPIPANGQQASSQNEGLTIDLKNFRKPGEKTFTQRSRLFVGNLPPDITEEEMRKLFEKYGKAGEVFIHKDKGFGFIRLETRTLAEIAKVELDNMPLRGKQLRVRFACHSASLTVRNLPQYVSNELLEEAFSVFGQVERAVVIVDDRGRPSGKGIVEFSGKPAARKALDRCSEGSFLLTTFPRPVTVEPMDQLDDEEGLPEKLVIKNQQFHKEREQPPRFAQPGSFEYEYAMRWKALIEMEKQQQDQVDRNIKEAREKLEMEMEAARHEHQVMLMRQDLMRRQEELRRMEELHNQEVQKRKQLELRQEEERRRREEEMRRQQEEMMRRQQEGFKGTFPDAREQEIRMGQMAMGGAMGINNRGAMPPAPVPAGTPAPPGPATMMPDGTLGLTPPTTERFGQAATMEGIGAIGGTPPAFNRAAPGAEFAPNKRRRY
T1 sequence (P23246 1-707 partner): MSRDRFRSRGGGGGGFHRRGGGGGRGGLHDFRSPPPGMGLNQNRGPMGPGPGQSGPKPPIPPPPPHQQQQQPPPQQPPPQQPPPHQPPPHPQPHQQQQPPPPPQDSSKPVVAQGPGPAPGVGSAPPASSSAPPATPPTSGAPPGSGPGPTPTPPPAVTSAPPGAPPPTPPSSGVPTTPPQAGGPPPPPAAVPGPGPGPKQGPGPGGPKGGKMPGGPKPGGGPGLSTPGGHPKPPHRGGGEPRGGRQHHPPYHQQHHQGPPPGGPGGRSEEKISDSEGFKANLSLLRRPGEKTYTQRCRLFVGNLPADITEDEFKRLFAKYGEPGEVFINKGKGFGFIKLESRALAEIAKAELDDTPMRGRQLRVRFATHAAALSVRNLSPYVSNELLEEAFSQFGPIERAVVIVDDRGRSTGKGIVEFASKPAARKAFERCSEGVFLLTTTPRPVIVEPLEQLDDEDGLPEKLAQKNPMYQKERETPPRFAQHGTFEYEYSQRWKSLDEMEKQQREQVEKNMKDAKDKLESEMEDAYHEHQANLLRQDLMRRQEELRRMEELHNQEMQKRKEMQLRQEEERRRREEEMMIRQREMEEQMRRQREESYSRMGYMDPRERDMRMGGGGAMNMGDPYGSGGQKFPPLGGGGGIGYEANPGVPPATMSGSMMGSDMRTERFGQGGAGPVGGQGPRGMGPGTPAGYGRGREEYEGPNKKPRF
Procedure: as §3

[9] = system: HCC1806 breast cancer cells; assay: 14-day colony formation or clonogenic survival assay; format: cell-based, human; details: veliparib 5 μM
Procedure: HCC1806 cells (500 cells/well) were plated in 6-well plates for 24 h prior to being treated with or without 5 μM of PARPi (veliparib) for a further 24 h. […] Colonies were washed with PBS and stained using 0.5% Crystal Violet (Sigma Aldrich) in 20% methanol for 30 min prior to rinsing with water. Colonies, defined as clusters of at least 30 cells, were imaged and counted with an AID vSpot Spectrum imager (AutoImmun Diagnostika GmbH, Strassberg, Germany).
The 14-day colony formation or clonogenic survival assay measures the ability of cells to survive 2 days of chemotherapy-induced DNA damage, and form colonies of at least 30 cells over the next 12 days. […] The purpose was to find conditions under which the cells become more sensitive to this low dose of chemotherapy.

[10] = system: γH2AX signal in MDA-MB-468 cells; assay: γH2AX response to etoposide after peptide incubation (blot), MDA-MB-468 cells; format: cell-based, human; details: 16 h incubation with peptide at 10 μM, 25 μM etoposide
Procedure: (§5) An elevated γH2AX signal is indicative of sustained DNA damage (i.e. inhibition of DNA repair) compared to the control cells. Peptide #66 was also evaluated in the presence of PARP inhibitors, veliparib (ABT-888) and olaparib (Lynparza). In FIG. 5e and FIG. 5f, the γH2AX signal in the absence of peptide #66 is expressed as 100%, and bars represent the ratio of γH2AX signal in the presence of the peptide, to that in its absence.

[11] = system: γH2AX signal in HCC1806 cells; assay: γH2AX response to etoposide after peptide incubation (blot), HCC1806 cells; format: cell-based, human; details: 16 h incubation with peptide at 10 μM, 25 μM etoposide
Procedure: as §5

[12] = 20 μM veliparib or 10 μM olaparib 24 h, then 20 μM etoposide 2 h
[13] = 24 h preincubation with 20 μM veliparib, 2 h after 20 μM etoposide

Compound: COc1cc([C@@H]2c3cc4c(cc3[C@@H](O[C@@H]3O[C@@H]5CO[C@@H](C)O[C@H]5[C@H](O)[C@H]3O)[C@H]3COC(=O)[C@H]23)OCO4)cc(OC)c1O [etoposide]
Time of peak interaction between IGFBP-3 and NONO (PLA) ([1]; 20 μM etoposide, 0 to 4 h): ~2 h
Time of peak interaction between IGFBP-3 and NONO (PLA) ([2]; 20 μM etoposide, 0 to 4 h): ~2 h
Activity in direct DNA end-joining assay ([3]; 20 μM etoposide 2 h, nuclear extracts (FIG. 4e)): increased activity

Compound: O=C(c1cc(Cc2n[nH]c(=O)c3ccccc23)ccc1F)N1CCN(C(=O)C2CC2)CC1 [olaparib]
Effect on loss of γH2AX signal over 4 h recovery (DSB repair) [4]: significantly prevented the loss of γH2AX signal
Effect on loss of γH2AX signal over 4 h recovery (DSB repair) [5]: significantly prevented the loss of γH2AX signal
Inhibition of end joining activity [3, 12]: approximately 50%
Inhibition of end joining activity [6, 12]: approximately 50%

Compound: CC(C)C[C@H](NC(=O)[C@H](Cc1c[nH]cn1)NC(=O)c1ccc2c(c1)C(=O)OC21c2ccc(N(C)C)cc2Oc2cc(N(C)C)ccc21)C(=O)N[C@@H](CCCCN)C(=O)N[C@@H](Cc1ccccc1)C(=O)N[C@@H](CC(C)C)C(=O)N[C@@H](CC(N)=O)C(=O)N[C@H](C(=O)N[C@@H](CC(C)C)C(=O)N[C@@H](CO)C(=O)N1CCC[C@H]1C(=O)N[C@@H](CCCNC(=N)N)C(=O)NCC(=O)O)C(C)C [peptide #66 labelled with 5-TAMRA] (5TAMRA-HLKFLNVLSPRG-OH)
Time of peak colocalization of labelled peptide and nuclei ([7]; fixed cell imaging, or 10 μM labelled peptide): 30 min
Association of labelled peptide with cell nuclei ([7]; live cell imaging, 2.5 μM or 10 μM labelled peptide): associated with cell nuclei at 40 and 60 min, and even more so after 90 min

Effect on IGFBP-3 complexes with NONO (immunoblotting after coIP) [8]: abolished
Compound: C[C@]1(c2nc3c(C(N)=O)cccc3[nH]2)CCCN1 [veliparib]
Effect on increase in IGFBP-3-NONO complexes (PLA) [1, 13]: abolished
Effect on increase in IGFBP-3-NONO complexes (PLA) [2, 13]: abolished
Effect on loss of γH2AX signal over 4 h recovery (DSB repair) [4]: significantly prevented the loss of γH2AX signal
Effect on loss of γH2AX signal over 4 h recovery (DSB repair) [5]: significantly prevented the loss of γH2AX signal
inhibition at 20 µM ([3]; Homo sapiens, MDA-MB-468): ~50%
inhibition at 20 µM ([6]; Homo sapiens, HCC1806): ~50%
Inhibition of cell survival (colony formation) ([9]; cells exposed to 100 nM etoposide): about one-third
Inhibition of cell survival (colony formation) ([9]; in the absence of etoposide): about one-third

Nuclear uptake of peptide ([7]; 5-TAMRA-labelled peptide, fixed and live cell imaging): rapid nuclear uptake
Compound: HLKFLNVLSPRG [Peptide #66]

Compound: MEDTLNHLKFLN [compound 64]
γH2AX signal (sustained DNA damage) compared to no peptide [10]: low γH2AX signal
γH2AX signal (sustained DNA damage) compared to no peptide [11]: low γH2AX signal

Compound: TLNHLKFLNVLS [compound 65]
γH2AX signal (sustained DNA damage) compared to no peptide [10]: sustained γH2AX signal
γH2AX signal (sustained DNA damage) compared to no peptide [11]: sustained γH2AX signal
